Measured values reported in patent US12060351B2, “Thiadiazole IRAK4 inhibitors” (Gilead Sciences, Inc., priority 2018, dated 2024).
Read-outs that look alike come from different tables or passages of the source.

Legend:
TNFα = experiment: IRAK4 Monocyte TNFα Cell Based Assay (LPS-stimulated, TR-FRET TNFα detection); parameters: species or system human; conditions: Homo sapiens, Monocyte, read-out: EC50 MONO TNF HTRF
Method: IRAK4 Monocyte TNFα Cell Based Assay Procedure:
The cell suspension was then plated at a density of 5,000 cells/well onto black 384 well Greiner clear bottom plates. Plates were pre-spotted with test compounds and serially diluted in DMSO where 40 nL/well were delivered using the Echo 550 acoustic liquid dispenser (Labcyte®) for a final DMSO concentration of 0.1%. Plated cells were treated with compound for 1 hour at 37° C. Cells were then stimulated with 50 pg/ml of LPS (Sigma) excluding outside columns of plate used for unstimulated cell control wells. Cells were incubated for an additional 4 hours at 37° C. Cells were then spun out of the media and 5 μl of sample were taken and analyzed for total TNFα content using the TR-FRET Human TNFα detection system (CisBio). This system utilizes two labeled antibodies (cryptate and XL665) that bind to two different epitopes of the TNFα molecule and produce FRET signal proportional to the concentration of TNFα in the sample. Detection antibodies are mixed 50:50 and 5 μL were dispensed into each well. Plates were covered with clear seals and incubated at room temp overnight. […] Percent of control was calculated as follows: % Control=100×(RatioSample−Ratio0% Stimulation)/(Ratio100% Stimulation−Ratio0% Stimulation) where unstimulated cells (0% stimulation) were the negative control and stimulated cells (100% stimulation) were used as the positive control.

IRAK4 enzyme = target: T1, IRAK4 enzyme (Homo sapiens, UniProt Q9NWZ3); experiment: IRAK4 Biochemical Assay (TR-FRET, STK1 KinEASE); conditions: 500 μM ATP, Table 2 second part (compounds 33-343), read-out: IC50 IRAK4-HTBS
T1 construct: purchased Carna Biosciences, Chuo-ku, Kobe, Japan
T1 sequence (Q9NWZ3 1-460): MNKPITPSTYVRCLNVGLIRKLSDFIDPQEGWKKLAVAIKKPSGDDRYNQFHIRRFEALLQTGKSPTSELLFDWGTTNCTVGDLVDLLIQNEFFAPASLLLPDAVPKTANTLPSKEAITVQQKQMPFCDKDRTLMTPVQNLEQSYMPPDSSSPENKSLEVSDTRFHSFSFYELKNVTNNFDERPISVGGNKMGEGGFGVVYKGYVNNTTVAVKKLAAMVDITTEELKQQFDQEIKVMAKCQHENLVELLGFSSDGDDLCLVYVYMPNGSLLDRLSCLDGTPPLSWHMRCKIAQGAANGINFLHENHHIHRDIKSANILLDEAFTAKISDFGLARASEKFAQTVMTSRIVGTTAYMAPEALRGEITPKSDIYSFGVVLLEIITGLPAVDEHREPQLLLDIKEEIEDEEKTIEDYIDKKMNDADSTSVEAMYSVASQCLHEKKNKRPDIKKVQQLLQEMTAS
Method: IRAK4 enzyme (Carna Biosciences, Chuo-ku, Kobe, Japan) activity was measured by detecting phosphorylated peptide substrate formation using an antibody against the phosphorylated peptide substrate. This is a time-resolved fluorescence resonance energy transfer (TR-FRET) immunoassay, based on the STK1 KinEASE Assay (Cisbio, Bedford, Massachusetts). The assay was designed as a simple two-step, endpoint assay (a 5 μl enzyme reaction followed by 5 μl stop and detect Solution) performed in ProxiPlate-384 Plus plates (Perkin Elmer, Waltham, Massachusetts). […] Compounds diluted in DMSO were spotted into 384 well plates using a Labcyte® Echo 550 Liquid Handling System prior to addition of IRAK4 enzyme and peptide substrate. Reaction solutions were delivered using a Multi-Flo (Bio-Tek Instruments). The enzyme and peptide solution was incubated with compound for 15 minutes at room temp before the reaction was initiated by the addition of ATP. The standard 5 μl reaction mixture contained 500 μM ATP, 2 μM peptide (STK1 Peptide), 0.75 nM of IRAK4 in reaction buffer (50 mM HEPES, pH 7.0, 0.02% NaN3, 0.01% BSA, 0.1 mM Orthovanadate, 5 mM MgCl2, 0.025% NP-40, 1 mM DTT). After 120 min of incubation at room temperature, 5 μl of Stop and Detect Solution (1:100 Cryptate labeled anti-phosphorylated peptide antibody solution and 125 nM Tracer in a 50 mM HEPES pH 7.0 detection buffer containing sufficient EDTA) was added. The plate was then further incubated for 60 minutes at room temperature and read on Envision 2103 Multilabeled reader (PerkinElmer) with excitation/emission/FRET emission at 340 nm/615 nm/665 nm, respectively. Fluorescence intensities at 615 nm and 665 nm emission wavelengths were expressed as a ratio (665 nm/615 nm).

[1] = human monocytes, LPS-stimulated, Table 2 second part (compounds 33-343)

| SMILES | EC50 (TNFα; [1]) | IC50 (IRAK4 enzyme) | EC50 (TNFα) |
| --- | --- | --- | --- |
| CC(=O)N[C@H]1C[C@H](c2nnc(-c3cnc(-c4ccc5cc(C#N)cnn45)cc3NC3CCOCC3)s2)C1 [Example 201, N-((1r,3r)-3-(5-(6-(3-cyanopyrrolo[1,2-b]pyridazin-7-yl)-4-((tetrahydro-2H-pyran-4-yl)amino)pyridin-3-yl)-1,3,4-thiadiazol-2-yl)cyclobutyl)acetamide] | 34.9 nM | 1.17 nM | – |
| CC(C)Nc1cc(-c2ccc3cc(C#N)cnn23)ncc1-c1nnc([C@H]2CC[C@H](NC(=O)C(C)(C)O)CC2)s1 [Example 315, N-((1r,4r)-4-(5-(6-(3-cyanopyrrolo[1,2-b]pyridazin-7-yl)-4-(isopropylamino)pyridin-3-yl)-1,3,4-thiadiazol-2-yl)cyclohexyl)-2-hydroxy-2-methylpropanamide] | 10.9 nM | 0.77 nM | – |
| CC(=O)N[C@H]1[C@@H]2CN(c3nnc(-c4cnc(-c5ccc6cc(C#N)cnn56)cc4NC(C)C)s3)C[C@@H]21 [Compound 240, N-((1R,5S,6s)-3-(5-(6-(3-cyanopyrrolo[1,2-b]pyridazin-7-yl)-4-(isopropylamino)pyridin-3-yl)-1,3,4-thiadiazol-2-yl)-3-azabicyclo[3.1.0]hexan-6-yl)acetamide] | 8.9 nM | 0.15 nM | – |
| CC(C)Nc1cc(-c2ccc3cc(C#N)cnn23)ncc1-c1nnc(N2C[C@H]3CC[C@@H](C2)[C@@H]3NC(=O)C(C)(C)O)s1 [Example 85, N-((1R,5S,8s)-3-(5-(6-(3-cyanopyrrolo[1,2-b]pyridazin-7-yl)-4-(isopropylamino)pyridin-3-yl)-1,3,4-thiadiazol-2-yl)-3-azabicyclo[3.2.1]octan-8-yl)-2-hydroxy-2-methylpropanamide] | 3.3 nM | 1.04 nM | – |
| COC(=O)N[C@H]1CC[C@H](Nc2cc(-c3ccc4cc(C#N)cnn34)ncc2-c2nnc([C@H]3CC[C@H](NC(C)=O)CC3)s2)CC1 [Example 34, methyl ((1R,4r)-4-((5-(5-((1r,4R)-4-acetamidocyclohexyl)-1,3,4-thiadiazol-2-yl)-2-(3-cyanopyrrolo[1,2-b]pyridazin-7-yl)pyridin-4-yl)amino)cyclohexyl)carbamate] | 4.9 nM | 0.55 nM | – |
| CC(=O)N[C@@H]1C[C@H]2COC[C@@H](C1)N2c1nnc(-c2cnc(-c3ccc4cc(C#N)cnn34)cc2NC(C)C)s1 [Example 209, N-((1R,5S,7r)-9-(5-(6-(3-cyanopyrrolo[1,2-b]pyridazin-7-yl)-4-(isopropylamino)pyridin-3-yl)-1,3,4-thiadiazol-2-lyl)-3-oxa-9-azabicyclo[3.3.1]nonan-7-yl)acetamide] | – | 0.89 nM | 9.6 nM |
| CC(C)Nc1cc(-c2ccc3cc(C#N)cnn23)ncc1-c1nnc(NCC(C)(C)O)s1 [Example 37, 7-(5-(5-((2-hydroxy-2-methylpropyl)amino)-1,3,4-thiadiazol-2-yl)-4-(isopropylamino)pyridin-2-yl)pyrrolo[1,2-b]pyridazine-3-carbonitrile] | ≥ 10000 nM | ≥ 1000 nM | – |
| CC(=O)N[C@H]1C[C@H]2CC[C@@H](C1)N2c1nnc(-c2cnc(-c3ccc4cc(C#N)cnn34)cc2NC(C)C)s1 [Example 55, N-((1R,3r,5S)-8-(5-(6-(3-cyanopyrrolo[1,2-b]pyridazin-7-yl)-4-(isopropylamino)pyridin-3-yl)-1,3,4-thiadiazol-2-yl)-8-azabicyclo[3.2.1]octan-3-yl)acetamide] | – | 0.54 nM | 115 nM |
| CC1(Nc2cc(-c3ccc4cc(C#N)cnn34)ncc2-c2nnc([C@H]3CC[C@H](NC(=O)C4CC4)CC3)s2)COC1 [Example 158, N-((1r,4r)-4-(5-(6-(3-cyanopyrrolo[1,2-b]pyridazin-7-yl)-4-((3-methyloxetan-3-yl)amino)pyridin-3-yl)-1,3,4-thiadiazol-2-yl)cyclohexyl)cyclopropanecarboxamide] | 19.8 nM | 1.15 nM | – |
| CC(=O)N[C@@H]1CCN(c2nnc(-c3cnc(-c4ccc5cc(C#N)cnn45)cc3NC(C)C)s2)C[C@@H]1O [Example 63, N-((3S,4R)-1-(5-(6-(3-cyanopyrrolo[1,2-b]pyridazin-7-yl)-4-(isopropylamino)pyridin-3-yl)-1,3,4-thiadiazol-2-yl)-3-hydroxypiperidin-4-yl)acetamide] | – | 0.29 nM | – |

Further compounds by falling IC50 (IRAK4 enzyme), results first:

| EC50 (TNFα; [1]) | IC50 (IRAK4 enzyme) | SMILES | EC50 (TNFα) |
| --- | --- | --- | --- |
| 5 nM | 1.72 nM | CC(C)Nc1cc(-c2ccc3cc(C#N)cnn23)ncc1-c1nnc(N2C[C@H]3CC[C@@H](C2)[C@@H]3NC(=O)[C@H]2C[C@](C)(O)C2)s1 [Example 92, (1r,3R)-N-((1R,5S,8s)-3-(5-(6-(3-cyanopyrrolo[1,2-b]pyridazin-7-yl)-4-(isopropylamino)pyridin-3-yl)-1,3,4-thiadiazol-2-yl)-3-azabicyclo[3.2.1]octan-8-yl)-3-hydroxy-3-methylcyclobutane-1-carboxamide] | – |
| – | 1.57 nM | CC(C)Nc1cc(-c2ccc3cc(C#N)cnn23)ncc1-c1nnc(N2C[C@H]3CC[C@@H](C2)[C@@H]3O)s1 [Example 154, 7-(5-(5-((1R,5S,8s)-8-hydroxy-3-azabicyclo[3.2.1]octan-3-yl)-1,3,4-thiadiazol-2-yl)-4-(isopropylamino)pyridin-2-yl)pyrrolo[1,2-b]pyridazine-3-carbonitrile] | – |
| 21.7 nM | 0.82 nM | CC(C)Nc1cc(-c2ccc3cc(C#N)cnn23)ncc1-c1nnc(N2C[C@H]3CC[C@@H](C2)[C@@H]3NC(=O)C(C)(C)C(=O)O)s1 [Example 97, 3-(((1R,5S,8s)-3-(5-(6-(3-cyanopyrrolo[1,2-b]pyridazin-7-yl)-4-(isopropylamino)pyridin-3-yl)-1,3,4-thiadiazol-2-yl)-3-azabicyclo[3.2.1]octan-8-yl)amino)-2,2-dimethyl-3-oxopropanoic acid] | – |
| 5.1 nM | 0.63 nM | CC(=O)N[C@H]1CC[C@H](c2nnc(-c3cnc(-c4ccc5cc(C#N)cnn45)cc3NC3CCOCC3)s2)CC1 [Compound 255, N-((1r,4r)-4-(5-(6-(3-cyanopyrrolo[1,2-b]pyridazin-7-yl)-4-((tetrahydro-2H-pyran-4-yl)amino)pyridin-3-yl)-1,3,4-thiadiazol-2-yl)cyclohexyl)acetamide] | – |
| 2.8 nM | 0.52 nM | C[C@H](C#N)Nc1cc(-c2ccc3cc(C#N)cnn23)ncc1-c1nnc([C@H]2CC[C@H](NC(=O)C3CC3)CC2)s1 [Example 160, N-((1R,4r)-4-(5-(4-(((R)-1-cyanoethyl)amino)-6-(3-cyanopyrrolo[1,2-b]pyridazin-7-yl)pyridin-3-yl)-1,3,4-thiadiazol-2-yl)cyclohexyl)cyclopropanecarboxamide] | – |
| 1830 nM | 0.31 nM | CC(C)Nc1cc(-c2ccc3cc(C#N)cnn23)ncc1-c1nnc(C(=O)N[C@H]2C[C@H](O)C2)s1 [Example 213, 5-(6-(3-cyanopyrrolo[1,2-b]pyridazin-7-yl)-4-(isopropylamino)pyridin-3-yl)-N-((1r,3r)-3-hydroxycyclobutyl)-1,3,4-thiadiazole-2-carboxamide] | – |
| ≥ 10000 nM | 0.07 nM | CC(=O)N[C@H]1C[C@H](c2nnc(-c3cnc(-c4ccc5cc(C#N)cnn45)cc3NC(C)C)s2)C1 [Compound 278, N-((1r,3r)-3-(5-(6-(3-cyanopyrrolo[1,2-b]pyridazin-7-yl)-4-(isopropylamino)pyridin-3-yl)-1,3,4-thiadiazol-2-yl)cyclobutyl)acetamide] | – |
